The source of these data is BindingDB's records for doi:10.3109/14756366.2011.637202 (Agri Ibrahim Cecen University, 2012).

Targets include Carbonic anhydrase 2 (Homo sapiens, UniProt P00918); Carbonic anhydrase 4 (Homo sapiens, UniProt P22748); Carbonic anhydrase 6 (Homo sapiens, UniProt P23280); Carbonic anhydrase 1 (Homo sapiens, UniProt P00915).
What all share (assay): Esterase Activity Assay

Chain of Carbonic anhydrase 1 (P00915 whole entry): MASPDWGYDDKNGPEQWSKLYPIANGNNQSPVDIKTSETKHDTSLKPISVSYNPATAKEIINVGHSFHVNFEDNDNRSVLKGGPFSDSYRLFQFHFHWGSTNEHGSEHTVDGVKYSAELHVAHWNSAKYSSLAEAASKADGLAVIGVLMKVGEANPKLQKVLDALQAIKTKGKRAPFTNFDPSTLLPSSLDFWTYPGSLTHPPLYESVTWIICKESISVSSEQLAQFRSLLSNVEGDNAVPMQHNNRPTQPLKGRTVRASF
Chain of Carbonic anhydrase 4 (P22748 whole entry): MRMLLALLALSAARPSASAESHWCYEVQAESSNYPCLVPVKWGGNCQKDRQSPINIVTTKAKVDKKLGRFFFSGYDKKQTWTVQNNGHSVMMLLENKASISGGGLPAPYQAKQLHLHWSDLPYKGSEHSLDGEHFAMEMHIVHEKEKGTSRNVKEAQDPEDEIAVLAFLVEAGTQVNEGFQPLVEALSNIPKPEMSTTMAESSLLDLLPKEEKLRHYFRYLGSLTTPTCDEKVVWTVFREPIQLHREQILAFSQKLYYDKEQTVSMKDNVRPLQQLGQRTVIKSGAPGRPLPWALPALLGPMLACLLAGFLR
Chain of Carbonic anhydrase 6 (P23280 whole entry): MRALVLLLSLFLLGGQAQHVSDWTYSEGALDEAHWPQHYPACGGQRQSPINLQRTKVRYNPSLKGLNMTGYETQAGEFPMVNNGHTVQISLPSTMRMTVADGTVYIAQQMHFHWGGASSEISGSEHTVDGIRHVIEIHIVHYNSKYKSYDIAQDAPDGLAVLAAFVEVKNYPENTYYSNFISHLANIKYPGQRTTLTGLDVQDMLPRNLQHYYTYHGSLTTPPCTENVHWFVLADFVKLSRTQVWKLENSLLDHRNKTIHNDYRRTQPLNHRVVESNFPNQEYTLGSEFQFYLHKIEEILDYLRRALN

As for `Oc1ccccc1`, the inhibition constant (Ki) on Carbonic anhydrase 2 was found to be 5.6 µM; at Carbonic anhydrase 4, 9.7 µM.
Turning to `Oc1cccc(O)c1O`, the Ki on Carbonic anhydrase 2 came to 0.52 µM; on Carbonic anhydrase 4, 0.49 µM; on Carbonic anhydrase 6, 6.83 µM.
Consider `CS(=O)(=O)Oc1ccccc1OS(C)(=O)=O` [1,2-Phenylenedimethanesulfonate (13)], for which the Ki was 196 µM on Carbonic anhydrase 1, 28.5 µM at Carbonic anhydrase 2, 41.6 µM at Carbonic anhydrase 4 and 313 µM at Carbonic anhydrase 6.
The corresponding values for `CS(=O)(=O)Oc1ccc(OS(C)(=O)=O)cc1` [1,4-Phenylene dimethanesulfonate (6)] are 22.1 µM, 4.23 µM, 9.12 µM and 28.4 µM.
Take `COc1ccccc1O` [1-Hydroxy-2-methoxybenzene]: the Ki at Carbonic anhydrase 2 was determined as 2.98 µM; on Carbonic anhydrase 4, 3.56 µM; at Carbonic anhydrase 6, 217 µM.
In the case of `COc1cc(C=O)ccc1OS(C)(=O)=O` [4-Formyl-2-methoxyphenyl methanesulfonate (15)], the Ki on Carbonic anhydrase 1 amounted to 79.1 µM; at Carbonic anhydrase 2, 6.45 µM; at Carbonic anhydrase 4, 8.14 µM; on Carbonic anhydrase 6 it was 12.1 µM.
Taken in the same sequence, the figures for `Oc1ccc(-c2ccccc2)cc1` [4-Hydroxybiphenyl] were 19.5 µM, 7.41 µM, 12.3 µM and 85 µM.
The corresponding values for `CS(=O)(=O)Oc1cccc(OS(C)(=O)=O)c1OS(C)(=O)=O` [Benzene-1,2,3-triyltrimethanesulfonate (11)] are 478 µM, 35.4 µM, 45.1 µM and 458 µM.
The corresponding values for `CS(=O)(=O)Oc1ccc(-c2ccccc2)cc1` [Biphenyl-4-ylmethanesulfonate (5)] are 48.5 µM, 12.2 µM, 26.5 µM and 162 µM.
For the compound `CS(=O)(=O)Oc1ccccc1` [Phenylmethanesulfonate (4)], the inhibition constant (Ki) was determined as 27.4 µM at Carbonic anhydrase 1, 8.7 µM at Carbonic anhydrase 2, 15.4 µM on Carbonic anhydrase 4 and 105 µM at Carbonic anhydrase 6.

What is called Ki is the dissociation constant of the complex between target and ligand, obtained from inhibition or displacement.
